In PMC8787488, “Two-Metal Ion-Dependent Enzymes as Potential Antiviral Targets in Human Herpesviruses” (mBio, 2022):

Key:
ICP8Δ60 = molecular target: T1, ICP8Δ60 (Human alphaherpesvirus 1 strain KOS, UniProt P17470); test: thermal shift, nanoDSF (Tycho NT.[…]); type: binding; conditions: 20x molar excess of compound to protein, 5 mM MgCl2, pH 7.5, without ssDNA
T1 construct: gene DBP; 60-residue deletion; source not described

UL12 = molecular target: T2, UL12 (Human alphaherpesvirus 1 strain 17, UniProt P04294); test: PicoGreen dsDNA exonuclease assay; type: biochemical; conditions: 10 nM UL12, 1 nM linearized pUC19 DNA, 1 mM MgCl2, pH 8.2, 37°C
T2 construct: full-length alkaline nuclease, purified from baculovirus-infected Sf9 cells
T2 sequence (P04294 whole entry, looked up): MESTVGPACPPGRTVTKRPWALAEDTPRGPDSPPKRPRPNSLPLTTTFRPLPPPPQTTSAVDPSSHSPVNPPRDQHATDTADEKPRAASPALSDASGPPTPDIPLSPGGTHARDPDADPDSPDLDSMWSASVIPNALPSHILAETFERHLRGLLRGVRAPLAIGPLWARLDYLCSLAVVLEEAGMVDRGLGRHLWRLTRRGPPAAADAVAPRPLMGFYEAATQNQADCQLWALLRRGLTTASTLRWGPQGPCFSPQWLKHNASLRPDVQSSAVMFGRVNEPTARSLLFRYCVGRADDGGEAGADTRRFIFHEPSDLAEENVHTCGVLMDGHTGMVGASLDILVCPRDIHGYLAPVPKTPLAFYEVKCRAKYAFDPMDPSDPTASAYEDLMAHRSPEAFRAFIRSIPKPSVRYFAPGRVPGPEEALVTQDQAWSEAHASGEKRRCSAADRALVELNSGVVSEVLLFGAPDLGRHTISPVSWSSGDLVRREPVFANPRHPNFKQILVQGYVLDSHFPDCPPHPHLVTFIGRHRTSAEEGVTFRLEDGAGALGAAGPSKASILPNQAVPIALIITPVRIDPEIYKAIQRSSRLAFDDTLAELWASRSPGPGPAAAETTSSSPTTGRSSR

His-UL30ΔN42 = molecular target: T3, His-UL30ΔN42 (Human alphaherpesvirus 1 strain KOS, UniProt P04292); test: gel-based primer extension polymerase assay; type: biochemical; conditions: 50 nM enzyme, dNTPs, 10 mM MgCl2, pH 7.6, 37°C
T3 construct: gene UL30; His-tagged, N-terminal 42 residues deleted; gift from Donald Coen; no UL42 mentioned
T3 sequence (P04292 43-1235, stated change not applied): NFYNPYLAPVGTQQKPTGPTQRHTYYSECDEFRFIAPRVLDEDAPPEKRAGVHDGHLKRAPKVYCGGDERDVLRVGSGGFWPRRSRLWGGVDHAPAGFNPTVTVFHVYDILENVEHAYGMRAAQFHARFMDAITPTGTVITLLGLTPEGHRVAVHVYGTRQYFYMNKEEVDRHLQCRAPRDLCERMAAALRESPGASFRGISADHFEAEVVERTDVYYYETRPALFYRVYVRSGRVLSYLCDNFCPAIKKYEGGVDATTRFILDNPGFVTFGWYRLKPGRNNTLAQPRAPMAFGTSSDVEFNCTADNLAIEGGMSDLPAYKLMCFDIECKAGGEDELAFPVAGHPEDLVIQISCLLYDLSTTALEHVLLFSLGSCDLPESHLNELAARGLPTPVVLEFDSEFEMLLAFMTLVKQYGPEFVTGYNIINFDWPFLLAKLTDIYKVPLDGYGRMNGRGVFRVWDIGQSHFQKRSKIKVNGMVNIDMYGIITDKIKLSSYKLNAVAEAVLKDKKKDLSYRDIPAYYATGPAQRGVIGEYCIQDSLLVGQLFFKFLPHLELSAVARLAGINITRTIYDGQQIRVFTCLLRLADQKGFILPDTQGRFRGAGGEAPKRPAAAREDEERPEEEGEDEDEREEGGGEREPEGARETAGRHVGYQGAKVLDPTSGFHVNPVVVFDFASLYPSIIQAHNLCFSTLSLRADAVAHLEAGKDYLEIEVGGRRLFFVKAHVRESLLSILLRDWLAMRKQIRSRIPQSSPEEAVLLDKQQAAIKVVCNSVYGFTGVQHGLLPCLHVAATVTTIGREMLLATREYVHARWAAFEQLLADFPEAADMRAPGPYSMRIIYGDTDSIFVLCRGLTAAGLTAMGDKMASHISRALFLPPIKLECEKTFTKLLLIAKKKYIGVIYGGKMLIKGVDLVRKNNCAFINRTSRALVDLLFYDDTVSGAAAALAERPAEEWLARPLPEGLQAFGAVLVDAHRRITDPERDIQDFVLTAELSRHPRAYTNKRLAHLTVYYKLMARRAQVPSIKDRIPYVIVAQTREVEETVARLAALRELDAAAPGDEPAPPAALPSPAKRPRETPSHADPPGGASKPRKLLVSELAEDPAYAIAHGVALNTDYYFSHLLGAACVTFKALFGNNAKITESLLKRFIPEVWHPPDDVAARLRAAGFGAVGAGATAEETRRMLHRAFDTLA

UL15C = molecular target: T4, UL15C (Human alphaherpesvirus 1 strain 17, UniProt P04295); test: dual-probe fluorescence nuclease assay; type: biochemical
T4 construct: gene TRM3; C-terminal nuclease domain, residues 471 to 736, pET28b(+), from E. coli BL21(DE3); without UL28 and UL33
T4 sequence (P04295 471-735): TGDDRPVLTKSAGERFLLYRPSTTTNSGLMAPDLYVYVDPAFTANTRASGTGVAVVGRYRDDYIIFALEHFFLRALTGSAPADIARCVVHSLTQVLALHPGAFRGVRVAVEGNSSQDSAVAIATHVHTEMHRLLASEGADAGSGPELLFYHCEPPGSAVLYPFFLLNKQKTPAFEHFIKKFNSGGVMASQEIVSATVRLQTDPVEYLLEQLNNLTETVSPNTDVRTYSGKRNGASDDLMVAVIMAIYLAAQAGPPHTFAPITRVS

T1 sequence (P17470 1-1136, stated change not applied): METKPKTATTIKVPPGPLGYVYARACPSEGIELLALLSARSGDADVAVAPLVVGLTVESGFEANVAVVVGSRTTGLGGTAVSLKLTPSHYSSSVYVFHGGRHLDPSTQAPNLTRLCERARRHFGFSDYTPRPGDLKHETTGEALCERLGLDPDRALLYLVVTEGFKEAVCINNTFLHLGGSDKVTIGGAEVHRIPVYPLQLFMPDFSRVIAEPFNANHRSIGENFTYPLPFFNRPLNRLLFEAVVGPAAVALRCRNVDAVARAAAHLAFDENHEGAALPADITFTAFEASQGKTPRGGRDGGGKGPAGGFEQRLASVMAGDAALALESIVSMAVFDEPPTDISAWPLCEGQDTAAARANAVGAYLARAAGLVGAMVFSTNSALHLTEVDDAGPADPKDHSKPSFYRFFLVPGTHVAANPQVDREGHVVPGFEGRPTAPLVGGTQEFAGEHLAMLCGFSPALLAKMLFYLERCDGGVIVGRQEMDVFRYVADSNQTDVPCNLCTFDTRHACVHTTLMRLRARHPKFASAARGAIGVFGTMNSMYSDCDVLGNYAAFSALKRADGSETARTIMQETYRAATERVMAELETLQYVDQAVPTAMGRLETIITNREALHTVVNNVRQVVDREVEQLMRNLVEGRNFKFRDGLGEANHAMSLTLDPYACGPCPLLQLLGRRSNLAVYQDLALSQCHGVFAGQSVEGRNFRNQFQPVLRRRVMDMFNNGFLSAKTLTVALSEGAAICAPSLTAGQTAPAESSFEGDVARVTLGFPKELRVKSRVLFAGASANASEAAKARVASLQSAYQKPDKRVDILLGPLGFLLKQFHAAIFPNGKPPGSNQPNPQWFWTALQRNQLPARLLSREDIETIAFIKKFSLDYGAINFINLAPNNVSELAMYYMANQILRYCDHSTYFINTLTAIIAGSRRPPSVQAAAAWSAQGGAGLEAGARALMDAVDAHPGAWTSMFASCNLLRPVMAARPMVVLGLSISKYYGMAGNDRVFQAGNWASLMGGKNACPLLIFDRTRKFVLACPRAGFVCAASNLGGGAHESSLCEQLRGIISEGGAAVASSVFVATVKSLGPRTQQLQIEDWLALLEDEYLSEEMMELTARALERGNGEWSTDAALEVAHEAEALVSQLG

O=c1c(O)cccc2cc(O)c(O)c(O)c12 [purpurogallin]
Ti (ICP8Δ60): RAL had no appreciable interactions with ICP8, while PPG showed a modest effect
% inhibition at 20 μM (UL12): strong inhibition was observed for PPG, AK-157, and AK-166

CC(C)c1ccc(CNC(=O)c2ccc3cccnc3c2O)cc1 [AK-166]
% inhibition at 20 μM (UL12): strong inhibition was observed for PPG, AK-157, and AK-166

O=C(Nc1ccc(Br)cc1)c1ccc2cccnc2c1O [AK-157]
inhibition at 20 μM (His-UL30ΔN42): only AK-157 and the known polymerase inhibitor phosphonoacetic acid (PAA) showed strong inhibition
% inhibition at 20 μM (UL12): strong inhibition was observed for PPG, AK-157, and AK-166

Cc1nnc(C(=O)NC(C)(C)c2nc(C(=O)NCc3ccc(F)cc3)c(O)c(=O)n2C)o1 [raltegravir]
inhibition at 12.5 µM (UL15C): ~80%
